“And” between values parts separate entries of the source, which are not always exact repeats. Identical values can stand only once.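 Briefly, cells in 96-well plates were exposed to five compound concentrations for 48 h, and endpoints were estimated by linear interpolation. GI50 = concentration required for 50% inhibition of growth. TGI: concentration producing complete growth inhibition.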
Assays:
Experiment in all cases: growth of human tumour cells (NCI), 48 h
[1] = system: KM12 colon
[2] = system: SR leukemia
[3] = system: MDA-MB-435
[4] = system: SNB-75 CNS
[5] = system: SK-MEL-2 melanoma
[6] = system: LOX IMVI melanoma
[7] = system: SK-OV-3 ovarian
[8] = system: SF-539 CNS
[9] = system: SF-295 CNS
[10] = system: COLO 205 colon
[11] = system: SN12C renal

Row | Compound | TGI [1] [µM] | TGI [2] [µM] | TGI [3] [µM] | TGI [4] [µM] | TGI [5] | TGI [6] [µM] | TGI [7] [µM] | TGI [8] [µM] | TGI [9] [µM] | TGI [10] [µM] | TGI [11] [µM] | GI50 [4] [µM] | GI50 [5]
1 | O=C(c1cscc1CCc1ccccc1)c1cscc1CCc1ccccc1 | > 100 | > 100 | > 100 | > 100 | > 100 µM | > 100 | > 100 | > 100 | > 100 | > 100 | > 100 | – | –
2 | O=Cc1cn(CCCCCCCCn2cc(C=O)c3ccccc32)c2ccccc12 | > 10 | > 10 | > 10 | > 10 | > 10 µM | > 10 | > 10 | > 10 | > 10 | > 10 | > 10 | – | –
3 | O=c1[nH]c(=O)c2c([nH]1)[nH]c1ccc(Br)cc12 | 79.3 | > 100 | > 100 | > 100 | > 100 µM | > 100 | 56.4 | > 100 | > 100 | > 100 | > 100 | – | –
4 | COC(=O)[C@@H]1C[C@@H](O)CN1C(=O)c1ccc([N+](=O)[O-])cc1[N+](=O)[O-] | > 100 | > 100 | > 100 | > 100 | > 100 µM | > 100 | > 100 | > 100 | > 100 | > 100 | > 100 | – | –
5 | COc1ccccc1-n1nnc2c(N)nc(N)nc21 | > 100 | > 100 | > 100 | > 100 | > 100 µM | > 100 | > 100 | > 100 | > 100 | > 100 | > 100 | – | –
6 | CC(C)(C)OC(=O)N(O)[C@@H]1CC[C@H](n2cnc3c(N)ncnc32)C1 | > 100 | > 100 | > 100 | > 100 | > 100 µM | > 100 | > 100 | > 100 | > 100 | > 100 | > 100 | – | –
7 | Clc1sc(Cl)c2c1[C@H](Cl)C[C@@H]2Cl | > 100 | > 100 | 40.2 | 64.7 | 65.9 µM | 25.2 | > 100 | 42.4 | > 100 | 62.2 | 50.6 | – | –
8 | CN(C)c1ccc(C=Nc2ccc(-c3nc4ccccc4s3)cc2)cc1 | > 100 | > 100 | > 100 | 80.9 | 58.9 µM | 94.8 | > 100 | > 100 | 29.9 | 62.3 | > 100 | – | –
9 | CC(=O)OCC1OC(n2c(C)c(C(C)=O)c(-c3ccco3)c(C#N)c2=S)C(OC(C)=O)C(OC(C)=O)C1OC(C)=O (stereo unspecified) | > 100 | > 100 | > 100 | 82.1 | 98.4 µM and > 100 µM | > 100 | > 100 | > 100 | > 100 | > 100 | > 100 | 0.171 | 27.4 µM and 74.4 µM

Reference: PubChem BioAssay (NCI)
